Measured values published in patent US20240216317A1, “COMPOSITION FOR PREVENTING, AMELIORATING OR TREATING INFLAMMATORY BOWEL DISEASE COMPRISING COMPOUND ISOLATED FROM ISODON EXCISUS AS EFFECTIVE COMPONENT” (HEALINNOLS INC., priority 2022, published 2024).

Assays:
occludin = assay: Immunofluorescence microscopy of tight junction-related protein occludin in intestinal epithelial wall model (DSS-treated Caco-2); type: cell-based, human; conditions: 3% DSS, 24 hours; Chemical formula 1 0.3, 1 or 3 μM; 5-ASA 500 μM; FIG. 3
Experimental: (§1) Caco-2 cell line (human intestinal epithelial cell line) and RAW 264.7 cell line, which is macrophage cells derived from mouse, were cultured at 37° C., 5% CO2 conditions by using DMEM (Dulbecco's Modified Eagle Medium, #11995065, Gibco) containing 10% FBS (fetal bovine serum, #16000044, Gibco) and 1% streptomycin/penicillin (#15140122, Gibco). For culturing the cells, the medium exchange was carried out every 2 to 3 days, and, once the cells are grown to the level of 80% in cell culture dish (#353003, Falcon), they were maintained by subculture.
(§2) The Caco-2 cells were adjusted to have density of 2×10^5 cells/ml. Suspension of the cells (0.5 ml) was aliquoted in apical side membrane phase of a transwell insert 12-well plate. To the basolateral side phase, 1.5 ml of culture medium were added. While replacing the medium with fresh one, once per 2 or 3 days, culture was continued for 21 days approximately, i.e., till to have cell division and suitable TEER (transepithelial electrical resistance) value of monolayer. […]
(§3) Thereafter, the cells were washed 3 times with 1×PBS for 5 minutes and treated for 5 minutes with Hoechst 33342 for staining the nucleus. […] After the mounting with ProLong™ Gold Antifade reagent, it was examined by confocal fluorescence microscopy.

RIPK2 = target: T1, RIPK2 (Homo sapiens, UniProt O43353); assay: Inhibitory activity on RIPK2 phosphorylation using Western blot in Caco-2 cells; type: cell-based; conditions: FIG. 1
T1 construct: Caco-2 cells were dissolved by adding buffer solution for degradation; endogenous in cells; host or cells: Caco-2
Experimental: Caco-2 cells were adjusted to have density of 2×10^5 cells/ml. Suspension of the cells (0.5 ml) was aliquoted in apical side membrane phase of a transwell insert 12-well plate. To the basolateral side phase, 1.5 ml of culture medium were added. While replacing the medium with fresh one, once per 2 or 3 days, culture was continued for 21 days approximately, i.e., till to have cell division and suitable TEER (transepithelial electrical resistance) value of monolayer.
For measuring the electric resistance (TEER value, Ω·cm^2) between the apical side and basolateral side, EVOM resistance meter (EVOM2, WPI) was employed.
Once the TEER value of Caco-2 cells is 200 Ω·cm^2 or higher, MDP inside the insert was treated for 24 hours with the compound represented by Chemical formula 1 of the present invention. After washing Caco-2 cells inside the insert with 1×PBS, they were treated with trypsin. After centrifuge and washing with cold 1×PBS, Caco-2 cells were dissolved by adding buffer solution for degradation (50 mM Tris-HCl (pH 8.0), 5 mM EDTA, 15 mM NaCl, 1% NP-40, 1 mM PMSF) followed by centrifuge for 20 minutes at 12,000 rpm, 4° C. Only the supernatant was then collected and protein quantification was carried out by using BCA protein assay kit. […]

ZO-1 = assay: Immunofluorescence microscopy of tight junction-related protein ZO-1 in intestinal epithelial wall model (DSS-treated Caco-2); type: cell-based, human; conditions: 3% DSS, 24 hours; Chemical formula 1 0.3, 1 or 3 μM; 5-ASA 500 μM; FIG. 2
Experimental: as §1, §2, §3

T1 sequence (O43353 whole entry): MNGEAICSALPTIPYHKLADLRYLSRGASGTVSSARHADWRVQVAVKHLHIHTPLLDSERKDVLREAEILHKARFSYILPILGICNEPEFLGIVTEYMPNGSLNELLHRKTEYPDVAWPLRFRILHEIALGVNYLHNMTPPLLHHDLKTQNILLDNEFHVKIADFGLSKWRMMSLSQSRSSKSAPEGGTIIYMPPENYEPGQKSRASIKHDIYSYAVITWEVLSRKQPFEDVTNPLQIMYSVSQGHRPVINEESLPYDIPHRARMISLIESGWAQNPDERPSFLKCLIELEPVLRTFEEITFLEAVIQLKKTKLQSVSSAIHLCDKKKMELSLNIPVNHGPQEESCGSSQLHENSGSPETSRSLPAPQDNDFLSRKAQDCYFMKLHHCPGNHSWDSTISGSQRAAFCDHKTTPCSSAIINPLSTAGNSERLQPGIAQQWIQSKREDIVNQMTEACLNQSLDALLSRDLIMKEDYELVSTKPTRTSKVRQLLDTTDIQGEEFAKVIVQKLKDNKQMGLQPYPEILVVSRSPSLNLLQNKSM

Row | Compound | expression amount of occludin compared to DSS model group (occludin) | inhibitory activity on RIPK2 phosphorylation relative to gefitinib (positive control) (RIPK2) | inhibition of activation of RIPK2 (phosphorylation) (RIPK2; MDP, 24 hours treatment) | expression amount of ZO-1 compared to DSS model group (ZO-1)
1 | COC(=O)C[C@H](OC(=O)/C=C/c1ccc(O)c(O)c1)c1ccc(O)c(O)c1 [Compound 1, 3-[3,4-dihydroxyphenyl]acrylic acid 1-[3,4-dihydroxyphenyl]-2-methoxycarbonylethyl ester] | statistically significantly higher | at least 2 times | can inhibit the activation of RIPK2 | statistically significantly higher
2 | Nc1ccc(O)c(C(=O)O)c1 [Compound 5-ASA, 5-aminosalicylic acid, reference compound] | statistically significantly higher |  |  | statistically significantly higher
